In the METLIN SMRT retention time set (Domingo-Almenara et al. 2019):

Test: gradient 5% acetonitrile 3 min, to 50% in 2 min, to 85% in 15 min, held 3 min, 100 µL/min
Conditions: column: Zorbax Extend-C18 2.1 x 50 mm; eluents: water / acetonitrile, 0.1% formic acid
How it was run: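 Retention times come from adduct peaks that were picked computationally and then checked by hand. The standards, pure and pooled in mixtures of ~100 molecules, were run on a Zorbax Extend-C18 column (2.1 × 50 mm, 1.8 μm) at 100 μL/min with water and acetonitrile, each with 0.1% formic acid. Detection was by quadrupole time-of-flight mass spectrometry in positive and negative ionization mode, with a dead volume of 40 μL and a dwell volume of 900 μL.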

| RP-LC retention time [s] | SMILES |
| --- | --- |
| 857 | C[C@H]1CN(C(=O)c2cc(Cl)ccc2F)C[C@@H]1c1nc(-c2ccncc2)no1 |
| 874 | CCc1ccc(NC(=O)N2CCC3(CC2)NC(=O)c2cc(C)ccc2N3C)cc1 |
| 812 | CCN1C(=O)C(C)(C(=O)NCc2ccccc2)Oc2cccnc21 (stereo unspecified) |
| 983 | O=C(NC1CCCCCC1)C1CCCN(C(=O)Cc2cccc3ccccc23)C1 (stereo unspecified) |
| 1150 | CC1CCN(S(=O)(=O)c2ccc(-c3nnc(C(=O)NCCCc4ccccc4)o3)cc2)CC1 |
| 594 | Cc1noc(C)c1S(=O)(=O)N1CC(N(C)Cc2cccnc2)C1 |
| 769 | O=C(NCc1ccc(F)cc1)C1CCN(c2cnc3nccnc3c2)CC1 |
| 1280 | COc1cccc(-c2csc(Cc3nc(-c4cccc(Cl)c4)no3)n2)c1 |
| 567 | Cc1[nH]c2ccccc2c1C(=O)CSc1n[nH]c(N)n1 |
| 652 | O=C(O)CNC(=O)C1CCN(S(=O)(=O)c2ccc(F)cc2)CC1 |
| 1280 | COc1cccc(-c2nc(C3CCN(S(=O)(=O)c4cc(C)c(C)cc4C)CC3)no2)c1 |
| 685 | COc1ccc(NC(=O)Cn2c(C(C)C)nc3c(c2=O)CN(Cc2ccccc2)CC3)cc1 |
| 732 | Cc1cc(N2CCN(c3ccccn3)CC2)n2ncc(-c3ccc(F)cc3)c2n1 |
| 1110 | Cc1ccccc1-c1noc(CN2C(=O)C(C)Oc3ccccc32)n1 (stereo unspecified) |
| 886 | CCC(=O)N(C1CCOCC1)C1CCN(S(=O)(=O)c2ccc(Cl)cc2)CC1 |
| 650 | O=C(NCc1cc(F)ccc1F)c1ccc2ncnc(N3CCCC3)c2c1 |
| 723 | Cc1cc(C2CCCN2C(=O)Cc2ccccc2F)no1 (stereo unspecified) |
| 593 | Cc1noc(C)c1CCNC(=O)c1cn2ccccc2n1 |
| 836 | COc1cc2c(C(=O)Oc3cccnc3)cn(-c3ccccc3)c(=O)c2cc1OC |
| 1100 | Cc1ccc(C(=O)Nc2nccnc2C(=O)NC2CCCCC2)cc1 |
| 823 | CC1(C)C(=O)N(CC(=O)Nc2ccc3c(c2)OCCO3)c2ccccc21 |
| 844 | Cc1nc(-c2ccc(C(=O)NCc3ccc4c(c3)OCO4)cc2)cs1 |

| RP-LC retention time [s] | SMILES |
| --- | --- |
| 827 | Cc1cc(S(=O)(=O)N2CCC(n3c(-c4ccco4)nc4cccnc43)C2)ccc1F (stereo unspecified) |
| 1010 | C(=C/c1nc2ccccc2o1)/c1ccc2c(c1)OCO2 |
| 595 | Cc1cc(C(=O)Nc2ccc3nc(N4CCN(C)CC4)cc(C)c3c2)ccc1[N+](=O)[O-] |
| 700 | CCNC(=O)C1CCCN(c2nc3ncn(CC(=O)Nc4ccccc4OCC)c(=O)c3s2)C1 (stereo unspecified) |
| 855 | CCN1C(=O)c2cccnc2Sc2cc(NC(=O)CCc3cccc(OC)c3)ccc21 |
| 989 | CCc1nn(CC)c(=O)c2cc(S(=O)(=O)NCc3ccc(Cl)cc3)cn12 |
| 800 | O=C1NCCCn2nc(C3CCN(S(=O)(=O)c4ccc5c(c4)CCC5)CC3)cc21 |
| 628 | Cc1cc2ccccc2n2c(SCC(=O)NCC3CCCO3)nnc12 (stereo unspecified) |
| 692 | Cc1ccc(-c2cn3ccccc3n2)cc1NS(=O)(=O)c1ccc(Cl)cc1 |
| 672 | CCC(=O)Nc1ccc2c(c1)CN(C(=O)c1ccccc1F)C(C(=O)N1CCCC1)C2 (stereo unspecified) |
| 652 | Cc1nnc(-c2nnc(NCC(C)C)c3ccccc23)o1 |
| 1110 | CN(C)S(=O)(=O)c1ccc(C(=O)Nc2nc3c(s2)CCc2ccccc2-3)cc1 |
| 994 | Cc1sc2ccn(CC(C)C)c(=O)c2c1C(=O)NCc1ccccc1F |
| 597 | COc1ccc(C2C(C(=O)NCCN(C)C)c3cc(OC)c(OC)cc3C(=O)N2C)cc1 (stereo unspecified) |
| 591 | c1ccc(-c2nc(C3CCNC3)no2)cc1 (stereo unspecified) |
| 879 | Cc1c(C(=O)N2CCN(c3ccccn3)CC2)oc2ccc3c(c12)C(=O)CC1(CCCCCC1)O3 |
| 787 | C=CCN1C(=O)COc2ccc(-c3nc(NC(C)=O)sc3C)cc21 |
| 855 | CCc1nnc(NC(=O)CCc2ccc(-c3ccc(F)cc3)o2)s1 |
| 683 | Cc1ccc(S(=O)(=O)N2CCC(CN3CCCC(C)C3)CC2)cc1Cl (stereo unspecified) |
| 1130 | CCn1c(C(=O)NCc2ccc(OC)cc2)cc2sc(Cl)cc21 |
| 870 | Cc1cc2c(c(=O)n(-c3ccccc3)c(=O)n2CC(=O)Nc2cccc(Cl)c2)n1C |
| 1310 | Cc1ccc(C)c(-c2coc(-c3ccc(NC(=O)COc4ccc(F)cc4)cc3)n2)c1 |

| RP-LC retention time [s] | SMILES |
| --- | --- |
| 722 | CCN1CCN(CCCNC(=O)Cn2c(-c3cccs3)cc3ccccc32)CC1 |
| 615 | COCCNC(=O)NCC1(c2ccccc2)CCOCC1 |
| 886 | Cc1cn2c3c(=O)n(Cc4c(F)cccc4Cl)c(=O)n(C)c3nc2n1C(C)C |
| 777 | CC(C)NC(=O)C1CCN(S(C)(=O)=O)c2cc(Cl)ccc2O1 (stereo unspecified) |
| 1020 | O=c1n(Cc2ccc(Cl)cc2)nc2ccc(S(=O)(=O)N3CCCCCC3)cn12 |
| 818 | Cc1[nH]c(C(=O)N2CCC(CC(=O)NCc3ccc(F)cc3)CC2)c(C)c1C(=O)OC(C)C |
| 819 | CC(NS(=O)(=O)c1ccc(Cl)c(-c2nnc(-c3ccccc3)o2)c1)C(=O)O (stereo unspecified) |
| 672 | COc1ccc(-c2nccn3cc(C(=O)O)nc23)cc1 |
| 690 | COCCN1CC2(CCCC2)N(Cc2ccc(C(C)C)cc2)CC1=O |
| 685 | O=C(c1cn(-c2cc(N3CCOCC3)ncn2)cn1)N1CCSCC1 |
| 813 | CN1C(=O)Cc2cc(C(=O)N3CCN(c4ccc(Cl)cc4)CC3)ccc21 |
| 906 | COC(=O)c1ccc(NC(=O)N2CCCC2c2ccc(OC)cc2)cc1 (stereo unspecified) |
| 879 | CCC(C)NC(=O)Cn1c(=O)c(S(=O)(=O)c2ccccc2)cc2cc(C)ccc21 (stereo unspecified) |
| 699 | Cc1nc(NC(=O)C2CCCN(c3ccc(-n4cccn4)nn3)C2)sc1C (stereo unspecified) |
| 679 | Cn1nc(C(=O)N2CCC(C(=O)N3CCCC3)CC2)c2c1CCN(C(=O)Cc1ccc(F)cc1)C2 |
| 954 | COc1ccccc1Nc1c(-c2ccc(C)cc2)nc2cnccn12 |
| 1030 | COc1ccc(NC(=O)Cn2cnc3c(sc4nc(-c5ccccc5)ccc43)c2=O)cc1Cl |
| 930 | COc1ccc(C)cc1NC(=O)Cc1csc2nc(-c3ccc(C)c(C)c3)cn12 |
| 938 | CC1=C(C(=O)OC(C)C)C(c2cccc(Oc3ccccc3)c2)NC(=O)N1 (stereo unspecified) |
| 579 | CNC(=O)NC(=O)COc1cc(=O)n2cccc(C)c2n1 |
| 694 | Cc1noc(C2CN(C(=O)Nc3ccccc3F)CC23CCOCC3)n1 (stereo unspecified) |
| 665 | CC(C)(C)NS(=O)(=O)CCNC(=O)c1ccccc1 |

| RP-LC retention time [s] | SMILES |
| --- | --- |
| 723 | CCOc1ccccc1NC(=O)N1CCCC(Cn2cnc3cccnc32)C1 (stereo unspecified) |
| 732 | CCOC(=O)c1c(C)oc2nc(C)nc(NCCN3CCN(c4ccc(OC)cc4)CC3)c12 |
| 747 | COc1ccc2cccc(C(=N)c3ccc(C)c4c3CCC4)c2c1 |
| 595 | CC(NCC(O)COCCOc1ccc(F)cc1)c1ccccc1 (stereo unspecified) |
| 593 | CC(C)c1nnc(C2CN(Cc3cccc(C(F)(F)F)c3)CC23CCN(C)CC3)o1 (stereo unspecified) |
| 571 | O=C(NCCCn1ccnc1)C(=O)NCCC1=CCCCC1 |
| 1180 | CCn1cc(-c2nc(C(=O)Nc3cc(F)cc(F)c3)cs2)c2cccnc21 |
| 1310 | CCc1ccc(OCc2nc(C)c(C(=O)Nc3nc(-c4ccccc4OC)cs3)s2)cc1 |
| 1260 | CCCS(=O)(=O)N1CC2(CCCCC2)CC1COCc1ccccc1 (stereo unspecified) |
| 576 | CC1CS(=O)(=O)N(c2ccc(C(=O)N3CCN(c4ccccn4)CC3)c(Cl)c2)C1=O (stereo unspecified) |
| 1030 | NC(=O)[C@@H](CCC(F)(F)F)N(Cc1ccc(-c2ncon2)cc1F)S(=O)(=O)c1ccc(Cl)cc1 |
| 1090 | CCc1ccc(-c2noc(Cn3c(=O)n(-c4ccccc4)c(=O)c4sccc43)n2)cc1 |
| 940 | Cc1nc(-c2csc(S(=O)(=O)N3CCCC(C(=O)Nc4ccc(C)c(Cl)c4)C3)c2)no1 (stereo unspecified) |
| 660 | Cc1cccc(N2CC(C(=O)N(C)C)CC2=O)c1 (stereo unspecified) |
| 1070 | CCc1nnc2ccc(-c3noc(-c4cccc(Cl)c4)n3)cn12 |
| 1140 | CCn1nnc(NCc2ccc(-c3cc(Cl)cc(Cl)c3)o2)n1 |
| 698 | COc1ccc(C(=O)N2CCC3(CC2)NC(=O)c2ccc(F)cc2N3C)cc1OC |
| 824 | Cc1nc(-c2ccccc2)sc1C(=O)N1CCCC1 |
| 711 | CCOC(=O)Nc1csnn1 |
| 712 | O=C(NCc1ccc(Cl)cc1)C1CCN(c2cnc(N3CCCC3)nc2)CC1 |
| 853 | CCOc1ccccc1NC(=O)Cn1nc2c(N3CCSCC3)nccn2c1=O |
| 797 | O=S(=O)(Cc1ccccc1)N1CCC(c2noc(-c3cnccn3)n2)C1 (stereo unspecified) |

| SMILES | RP-LC retention time [s] |
| --- | --- |
| COCCN1C(=O)[C@H]2CN(Cc3cccnc3)C[C@H]2C1=O | 528 |
| COc1ccc(CN2CCNCC2)c(OC)c1OC | 578 |
| CC(C)CN1Cc2ccccc2-n2ccnc2C12CCN(C(=O)c1ccccc1F)CC2 | 650 |
